target: benzodiazepine modulatory unit (GABAA receptor complex), labelled with 3H-flunitrazepam; experiment: In vitro inhibition of 3H-flunitrazepam (3H-FNM) binding; design: species or system rat; details: cerebral cortex membranes from male Wistar rats; 3H-FNM 1 nM; 40 min at 2° C.
Protocol: In Vitro Inhibition of ^3H-flunitrazepam (^3H-FNM) Binding
The GABA recognition site and the benzodiazepine modulatory unit can selectively be labelled with ^3H-flunitrazepam.
Preparations are performed at 0-4° C. unless otherwise indicated. Cerebral cortex from male Wistar rats (150-200 g) is homogenised for 5-10 sec in 20 ml Tris-HCl (30 mM, pH 7.4) using an Ultra-Turrax homogeniser. The suspension is centrifuged at 27,000×g for 15 min and the pellet is washed three times with buffer (centrifuged at 27,000×g for 10 min). The washed pellet is homogenized in 20 ml of buffer and incubated on a water bath (37° C.) for 30 min to remove endogenous GABA and then centrifuged for 10 min at 27,000×g. The pellet is then homogenized in buffer and centrifuged for 10 min at 27,000×g. The final pellet is resuspended in 30 ml buffer and the preparation is frozen and stored at −20° C.
The membrane preparation is thawed and centrifuged at 2° C. for 10 min at 27,000×g. The pellet is washed twice with 20 ml 50 mM Tris-citrate, pH 7.1 using an Ultra-Turrax homogeniser and centrifuged for 10 min at 27,000×g. The final pellet is resuspended in 50 mM Tris-citrate, pH 7.1 (500 ml buffer per g of original tissue), and then used for binding assays. Aliquots of 0.5 ml tissue are added to 25 μl of test solution and 25 μl of ^3H-FNM (1 nM, final concentration), mixed and incubated for 40 min at 2° C. Non-specific binding is determined using Clonazepam (1 μM, final concentration). After incubation the samples are added 5 ml of ice-cold buffer and poured directly onto Whatman GF/C glass fibre filters under suction and immediately washed with 5 ml ice-cold buffer. The amount of radioactivity on the filters is determined by conventional liquid scintillation counting. Specific binding is total binding minus non-specific binding.
Co is specific binding in control assays, and
Cx is the specific binding in the test assay.
(The calculations assume normal mass-action kinetics).

Compound	IC50
COc1ccccc1-c1cccc(-n2cnc3cc([C@@H](C)N)ccc32)c1 [Compound 12o, (R)-1-[1-(2′-Methoxy-biphenyl-3-yl)-1H-benzoimidazol-5-yl]-ethylamine]	6.7 nM
CC(N)c1ccc2c(c1)ncn2-c1cccc(-c2ccccc2)c1 (centres unmarked) [Compound 3a, 1-(1-Biphenyl-3-yl-1H-benzoimidazol-5-yl)-ethylamine]	73 nM
COc1ccccc1-c1cccc(-n2cnc3cc([C@H](C)NC(C)=O)ccc32)c1 [Compound 12g, N-{(S)-1-[1-(2′-Methoxy-biphenyl-3-yl)-1H-benzoimidazol-5-yl]-ethyl}-acetamide]	2.6 nM
C[C@@H](N)c1ccc2c(c1)ncn2-c1cccc(-c2ccccc2C#N)c1 [Compound 12r, 3′-[5-((R)-1-Amino-ethyl)-benzoimidazol-1-yl]-biphenyl-2-carbonitrile]	3.7 nM
COc1ccccc1-c1cccc(-n2cnc3cc([C@@H](C)NC(C)=O)ccc32)c1 [Compound 12b, N-{(R)-1-[1-(2′-Methoxy-biphenyl-3-yl)-1H-benzoimidazol-5-yl]-ethyl}-acetamide]	60 nM
